Assay results from ChEMBL document CHEMBL1132742, “The synthesis and SAR of rhodanines as novel class C beta-lactamase inhibitors” (Bioorg Med Chem Lett, 2000).
Values after ≈ are worked out from the molar mass of the structure shown. Values belong to the compound of their own block, whether it stands above or below them. Active and inactive are the calls of the source. No cut-off for these calls is given here.

Assays:
[1] = target: Beta-lactamase TEM (Escherichia coli) (UniProt P62593); assay: Inhibitory activity against class A Beta-lactamase TEM isolated from Escherichia coli
Chain of Beta-lactamase TEM (Escherichia coli) (P62593 whole entry, looked up): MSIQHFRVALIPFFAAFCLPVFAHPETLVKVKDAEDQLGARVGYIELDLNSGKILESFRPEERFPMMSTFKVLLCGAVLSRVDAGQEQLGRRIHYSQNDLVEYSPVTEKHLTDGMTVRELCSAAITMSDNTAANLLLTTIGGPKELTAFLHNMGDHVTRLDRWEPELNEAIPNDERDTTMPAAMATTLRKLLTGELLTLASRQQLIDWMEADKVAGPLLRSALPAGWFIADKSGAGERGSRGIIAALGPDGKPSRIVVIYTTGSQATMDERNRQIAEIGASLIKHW

[2] = target: Beta-lactamase (Enterobacter cloacae, UniProt P05364); assay: Inhibitory activity against class C Beta-lactamase isolated from Enterobacter cloacae
Chain of Beta-lactamase (P05364 whole entry): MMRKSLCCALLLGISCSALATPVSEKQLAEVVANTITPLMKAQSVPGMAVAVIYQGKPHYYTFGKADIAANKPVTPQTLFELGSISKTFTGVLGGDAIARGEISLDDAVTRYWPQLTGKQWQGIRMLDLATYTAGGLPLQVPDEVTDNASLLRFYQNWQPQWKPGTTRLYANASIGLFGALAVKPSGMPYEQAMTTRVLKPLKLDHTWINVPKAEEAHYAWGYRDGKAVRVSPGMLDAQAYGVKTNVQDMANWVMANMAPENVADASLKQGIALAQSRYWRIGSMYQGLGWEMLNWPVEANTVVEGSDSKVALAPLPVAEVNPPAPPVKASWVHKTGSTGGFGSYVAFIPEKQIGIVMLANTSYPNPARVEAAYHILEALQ

[3] = tested on: Enterobacter cloacae; assay: The compound was evaluated for antimicrobial activity against Enterobacter cloacae OC 4092 by inhibiting enzyme E2 (ind); type: functional
[4] = tested on: Pseudomonas aeruginosa; assay: The compound was evaluated for antimicrobial activity against Pseudomonas aeruginosa OC 4270 by inhibiting enzyme AmpC(ind); type: functional
[5] = tested on: Escherichia coli; assay: The compound was evaluated for antimicrobial activity against Escherichia coli OC 4075 by inhibiting enzyme TEM-1; type: functional
[6] = tested on: Pseudomonas aeruginosa; assay: The compound was evaluated for antimicrobial activity against Pseudomonas aeruginosa OC 4290 by inhibiting enzyme AmpC(const); type: functional
[7] = tested on: Enterobacter cloacae; assay: The compound was evaluated for antimicrobial activity against Enterobacter cloacae OC 4080 by inhibiting enzyme P99; type: functional
[8] = tested on: Enterobacter cloacae; assay: The compound was evaluated for antimicrobial activity against Enterobacter cloacae OC 4081 by inhibiting enzyme E2 (const); type: functional
[9] = tested on: Pseudomonas aeruginosa; assay: The ratio of compound to that of piperacillin was evaluated for antimicrobial activity against Pseudomonas aeruginosa OC 4270 by inhibiting enzyme AmpC(ind) at 1 ug/mL; type: functional
[10] = tested on: Escherichia coli; assay: The ratio of compound to that of piperacillin was evaluated for antimicrobial activity against Escherichia coli OC 4075 by inhibiting enzyme TEM-1 at 4 ug/mL; not applicable; type: functional, organism-based
[11] = tested on: Serratia marcescens; assay: The ratio of compound to that of piperacillin was evaluated for antimicrobial activity against Serratia marcescens OC 4294 by inhibiting enzyme AmpC(const) at 1 ug/mL; type: functional
[12] = tested on: Pseudomonas aeruginosa; assay: The ratio of compound to that of piperacillin was evaluated for antimicrobial activity against Pseudomonas aeruginosa OC 4290 by inhibiting enzyme AmpC(const) at 1 ug/mL; type: functional
[13] = tested on: Serratia marcescens; assay: The compound was evaluated for antimicrobial activity against Serratia marcescens OC 4294 by inhibiting enzyme AmpC(const); type: functional
[14] = tested on: Serratia marcescens; assay: The ratio of compound to that of piperacillin was evaluated for antimicrobial activity against Serratia marcescens OC 4294 by inhibiting enzyme AmpC(const) at 4 ug/mL; type: functional
[15] = tested on: Pseudomonas aeruginosa; assay: The ratio of compound to that of piperacillin was evaluated for antimicrobial activity against Pseudomonas aeruginosa OC 4290 by inhibiting enzyme AmpC(const) at 4 ug/mL; type: functional
[16] = tested on: Serratia marcescens; assay: The compound was evaluated for antimicrobial activity against Serratia marcescens OC 4101 by inhibiting enzyme AmpC(ind); type: functional
[17] = tested on: Enterobacter cloacae; assay: The ratio of compound to that of piperacillin was evaluated for antimicrobial activity against Enterobacter cloacae OC 4080 by inhibiting enzyme P99 at 4 ug/mL; not applicable; type: functional, organism-based
[18] = tested on: Pseudomonas aeruginosa; assay: The ratio of compound to that of piperacillin was evaluated for antimicrobial activity against Pseudomonas aeruginosa OC 4270 by inhibiting enzyme AmpC(ind) at 4 ug/mL; type: functional
[19] = tested on: Serratia marcescens; assay: The ratio of compound to that of piperacillin was evaluated for antimicrobial activity against Serratia marcescens OC 4101 by inhibiting enzyme AmpC(ind) at 4 ug/mL; type: functional
[20] = tested on: Enterobacter cloacae; assay: The ratio of compound to that of piperacillin was evaluated for antimicrobial activity against Enterobacter cloacae OC 4080 by inhibiting enzyme P99 at 1 ug/mL; type: functional
[21] = tested on: Escherichia coli; assay: The ratio of compound to that of piperacillin was evaluated for antimicrobial activity against Escherichia coli OC 4075 by inhibiting enzyme TEM-1 at 1 ug/mL; type: functional
[22] = tested on: Serratia marcescens; assay: The ratio of compound to that of piperacillin was evaluated for antimicrobial activity against Serratia marcescens OC 4101 by inhibiting enzyme AmpC(ind) at 1 ug/mL; type: functional
[23] = tested on: Escherichia coli; assay: The ratio of compound to that of piperacillin was evaluated for antimicrobial activity against Escherichia coli OC 4075 by inhibiting enzyme TEM-1 at 4 ug/mL; type: functional
[24] = tested on: Enterobacter cloacae; assay: The ratio of compound to that of piperacillin was evaluated for antimicrobial activity against Enterobacter cloacae OC 4080 by inhibiting enzyme P99 at 4 ug/mL; type: functional
[25] = Pseudomonas aeruginosa, read-out: MIC
[26] = Escherichia coli, read-out: MIC
[27] = Enterobacter cloacae, read-out: MIC

SMILES: O=C1NC(=S)S/C1=C\c1ccccc1C(=O)O
IC50 [1]: > 700 µM
IC50 [2]: > 700 µM

IC50 [1]: 432 µM
IC50 [2]: 240 µM
SMILES: CCN1C(=O)/C(=C/c2ccccc2)SC1=S

SMILES: O=C1NC(=S)SC1=CC=Cc1ccco1
IC50 [1]: 100 µM
IC50 [2]: 62 µM

SMILES: O=C1NC(=S)S/C1=C\c1ccccc1[N+](=O)[O-]
IC50 [1]: > 700 µM
IC50 [2]: 290 µM

SMILES: O=C1NC(=S)SC1=CC=Cc1ccccc1
IC50 [1]: > 700 µM
IC50 [2]: 76 µM

SMILES: O=C1NC(=S)S/C1=C\c1cn(-c2ccccc2)cn1
IC50 [1]: > 700 µM
IC50 [2]: > 700 µM

SMILES: N#Cc1ccc(/C=C2\SC(=S)NC2=O)cc1
IC50 [1]: > 700 µM
IC50 [2]: 500 µM

IC50 [1]: > 100 µM
IC50 [2]: 8 µM
SMILES: CN(C)c1ccc(C=CC=C2SC(=S)NC2=O)cc1

MIC [3]: 4 µg/mL (≈ 15 µM)
MIC [4, 25]: 32 µg/mL (≈ 120 µM)
MIC [5, 26]: 1 µg/mL (≈ 3.76 µM)
IC50 [1]: > 50 µM
IC50 [2]: > 50 µM
MIC [6, 25]: 32 µg/mL (≈ 120 µM)
MIC [7, 27]: 0.5 µg/mL (≈ 1.88 µM)
MIC [8]: 4 µg/mL (≈ 15 µM)
SMILES: O=C1NC(=O)C(=CC=Cc2ccc([N+](=O)[O-])o2)S1

SMILES: O=C1NC(=S)SC1=CC=Cc1ccc([N+](=O)[O-])o1
Ratio [9]: 4
MIC [3]: 32 µg/mL (≈ 113 µM)
Ratio [10]: inactive
MIC [4]: 32 µg/mL (≈ 113 µM)
MIC [4, 25]: 32 µg/mL (≈ 113 µM)
Ratio [11]: 32
Ratio [12]: 16
MIC [5]: 2 µg/mL (≈ 7.08 µM)
MIC [5, 26]: 2 µg/mL (≈ 7.08 µM)
IC50 [1]: 100 µM
MIC [13]: 8 µg/mL (≈ 28.3 µM)
Ratio [14]: 8
Ratio [15]: 8
MIC [16]: 8 µg/mL (≈ 28.3 µM)
Ratio [17]: inactive
Ratio [18]: 4
IC50 [2]: 0.45 µM
Ratio [19]: 2
Ratio [20]: 64
MIC [6]: 32 µg/mL (≈ 113 µM)
MIC [6, 25]: 32 µg/mL (≈ 113 µM)
Ratio [21]: 64
Ratio [22]: 2
MIC [7]: 2 µg/mL (≈ 7.08 µM)
MIC [7, 27]: 2 µg/mL (≈ 7.08 µM)
MIC [8]: 32 µg/mL (≈ 113 µM)

MIC [4, 25]: 8 µg/mL (≈ 15.5 µM)
MIC [5]: > 64 µg/mL
MIC [13]: > 64 µg/mL
MIC [16]: 8 µg/mL (≈ 15.5 µM)
MIC [6, 25]: > 64 µg/mL
MIC [7, 27]: > 64 µg/mL
SMILES: CCN1CCN(C(=O)N[C@@H](C(=O)N[C@@H]2C(=O)N3[C@@H]2SC(C)(C)[C@@H]3C(=O)O)c2ccccc2)C(=O)C1=O [PIPERACILLIN]

SMILES: O=C1NC(=S)S/C1=C\c1cn(-c2ccccc2)nn1
IC50 [1]: > 700 µM
IC50 [2]: 83 µM

IC50 [1]: > 700 µM
IC50 [2]: > 700 µM
SMILES: O=C(O)CN1C(=O)/C(=C/c2ccccc2)SC1=S

SMILES: O=C1NC(=S)S/C1=C\c1ccccc1O
IC50 [1]: > 700 µM
IC50 [2]: 335 µM

SMILES: C[C@]1(Cn2ccnn2)[C@H](C(=O)O)N2C(=O)C[C@H]2S1(=O)=O [TAZOBACTAM]
MIC [23]: 8 µg/mL
MIC [14]: 32 µg/mL
MIC [15]: 32 µg/mL
MIC [18]: 8 µg/mL
MIC [24]: 64 µg/mL
MIC [19]: 4 µg/mL

IC50 [1]: 190 µM
IC50 [2]: > 700 µM
SMILES: CC(=O)Nc1ccccc1/C=C1\SC(=S)NC1=O

SMILES: O=C1NC(=S)S/C1=C\c1ccc([N+](=O)[O-])cc1
IC50 [1]: > 700 µM
IC50 [2]: 43 µM

IC50 [1]: 138 µM
IC50 [2]: 246 µM
SMILES: O=C1/C(=C/c2ccccc2)SC(=S)N1CNc1nncs1

SMILES: O=C1/C(=C/c2ccccc2)SC(=S)N1CNc1nn[nH]n1
IC50 [1]: > 700 µM
IC50 [2]: 435 µM

IC50 [1]: 32 µM
IC50 [2]: 9.7 µM
SMILES: O=C1NC(=S)S/C1=C\CCc1ccccc1

IC50 [1]: 8.7 µM
IC50 [2]: 2.6 µM
SMILES: O=C1NC(=S)S/C1=C1/C(=O)Nc2ccccc21

SMILES: O=C1NC(=S)SC1=CC=Cc1ccc([N+](=O)[O-])cc1
IC50 [1]: 100 µM
IC50 [2]: 4.2 µM
